Usually IC50 stands for the concentration at which inhibition is half-maximal.

Bounds are passed on as bounds.

For 64 compounds, IC50 results are on record in ChEMBL document CHEMBL1146248, “Cytotoxic small molecule dimers and their inhibitory activity against human breast cancer cells” (Bioorg Med Chem Lett, 2007).

Assay [1] deals with SK-BR-3. The assay can be described thus: Antiproliferative activity against human estrogen receptor negative SKBr3 cells overexpressing Her2 after 72 hrs. Conditions: SK-BR-3, 72 h. The class given is functional, cell-based.
The subject of assay [2] is MCF7. As to the kind of experiment: Antiproliferative activity against human estrogen receptor positive MCF7 cells after 72 hrs. The settings on record: MCF7, 72 h. The class given is functional, cell-based.

Regarding `Cc1cc(C(=O)Nc2ccc3c(c2)OCCO3)c(C)cc1C(=O)Nc1ccc2c(c1)OCCO2`, the IC50 in assay [1] and in assay [2] was more than 100 µM throughout.

Take `O=C(Nc1cccc(Cl)c1)c1cccc(C(=O)Nc2cccc(Cl)c2)c1`: the results for the IC50 in assay [1] and in assay [2] were more than 100 µM and 56.5 µM, respectively.

As to `O=C(Nc1ccccc1F)c1cccc(C(=O)Nc2ccccc2F)c1`, the IC50 in assay [1] and in assay [2] was more than 100 µM throughout.

Take `O=C(Nc1ccc2c(c1)OCCO2)c1cc(Cl)c(C(=O)Nc2ccc3c(c2)OCCO3)cc1Cl`: the IC50 in assay [1] and in assay [2] was more than 100 µM each time.

Take `O=C(Nc1ccc2c(c1)OCCO2)c1cccc(C(=O)Nc2ccc3c(c2)OCCO3)c1`: the IC50 in assay [1] and in assay [2] was more than 100 µM each time.

Take `O=C(Nc1ccc2c(c1)OCCO2)c1ccnc(C(=O)Nc2ccc3c(c2)OCCO3)c1`: the IC50 in assay [1] and in assay [2] was more than 100 µM in each case.

As to `O=C(Nc1cc(Cl)cc(Cl)c1)c1ccnc(C(=O)Nc2cc(Cl)cc(Cl)c2)c1`, the half-inhibitory concentration (IC50) in assay [1] came to 10.5 µM; in assay [2], 4.2 µM.

Take `O=C(Nc1cc(Cl)cc(Cl)c1)c1cc(Cl)c(C(=O)Nc2cc(Cl)cc(Cl)c2)cc1Cl`: the IC50 in assay [1] and in assay [2] was more than 100 µM throughout.

Take `Cc1c(O)ccc2cc(NC(=O)c3cccc(C(=O)Nc4cc5ccc(O)c(C)c5oc4=O)n3)c(=O)oc12`: the IC50 in assay [1] and in assay [2] was more than 100 µM throughout.

For the compound `Cc1c(O)ccc2cc(NC(=O)c3cccc(C(=O)Nc4cc5ccc(O)c(C)c5oc4=O)c3)c(=O)oc12`, the IC50 in assay [1] and in assay [2] was more than 100 µM each time.

As for `Cc1cc(C(=O)Nc2cc(Cl)cc(Cl)c2)c(C)cc1C(=O)Nc1cc(Cl)cc(Cl)c1`, the IC50 in assay [1] and in assay [2] was more than 100 µM in each case.

For the compound `O=C(Nc1cc(Cl)cc(Cl)c1)c1ccc(C(=O)Nc2cc(Cl)cc(Cl)c2)cc1`, the half-inhibitory concentration (IC50) in assay [1] and in assay [2] was more than 100 µM in each case.

For `Cc1c(O)ccc2cc(NC(=O)c3ccnc(C(=O)Nc4cc5ccc(O)c(C)c5oc4=O)c3)c(=O)oc12`, the IC50 in assay [1] and in assay [2] was more than 100 µM throughout.

On to `O=C(CCCCCCC(=O)Nc1cc(Cl)cc(Cl)c1)Nc1cc(Cl)cc(Cl)c1`, for which the IC50 in assay [1] and in assay [2] was more than 100 µM in each case.

Take `O=C(Nc1ccc(F)c(F)c1)c1ccnc(C(=O)Nc2ccc(F)c(F)c2)c1`: the IC50 in assay [1] and in assay [2] was more than 100 µM throughout.

For the compound `O=C(Nc1ccc2c(c1)OCCOCCOCCOCCO2)c1ccc(C(=O)Nc2ccc3c(c2)OCCOCCOCCOCCO3)nc1`, the results for the IC50 in assay [1] and in assay [2] were 4.5 µM and 7.2 µM, respectively.

`O=C(Nc1ccc(F)c(F)c1)c1cccc(C(=O)Nc2ccc(F)c(F)c2)c1` registered an IC50 in assay [1] of more than 100 µM.

For `O=C(Nc1cc(F)ccc1F)c1cccc(C(=O)Nc2cc(F)ccc2F)n1`, the IC50 in assay [1] and in assay [2] was more than 100 µM each time.

In the case of `O=C(Nc1cc(F)ccc1F)c1cccc(C(=O)Nc2cc(F)ccc2F)c1`, the IC50 in assay [1] and in assay [2] was more than 100 µM in each case.

With `O=C(Nc1cc(F)cc(F)c1)c1cccc(C(=O)Nc2cc(F)cc(F)c2)n1`, the IC50 in assay [1] and in assay [2] was more than 100 µM throughout.

Turning to `COc1cc(NC(=O)c2cccc(C(=O)Nc3cc(OC)cc(OC)c3)n2)cc(OC)c1`, the IC50 in assay [1] is more than 100 µM; in assay [2], 52.1 µM.

For `O=C(Nc1ccc2c(c1)OCCO2)c1ccc(C(=O)Nc2ccc3c(c2)OCCO3)nc1`, the IC50 in assay [1] and in assay [2] was more than 100 µM in each case.

`O=C(NCc1ccc2c(c1)OCO2)c1ccc(C(=O)NCc2ccc3c(c2)OCO3)nc1`: the 50% inhibitory concentration (IC50) in assay [1] and in assay [2] was more than 100 µM in each case.

Turning to `N#Cc1ccc(NC(=O)c2ccnc(C(=O)Nc3ccc(C#N)cc3)c2)cc1`, the IC50 in assay [1] and in assay [2] was more than 100 µM each time.

For `O=C(Nc1ccc2ccccc2c1)c1cccc(C(=O)Nc2ccc3ccccc3c2)c1`, the 50% inhibitory concentration (IC50) in assay [1] is 15.2 µM; in assay [2] it was 4.6 µM.

As for `O=C(Nc1cc(F)cc(F)c1)c1ccc(C(=O)Nc2cc(F)cc(F)c2)nc1`, the concentration for half-maximal inhibition (IC50) in assay [1] and in assay [2] was more than 100 µM in each case.

In the case of `COc1cc(NC(=O)c2ccc(C(=O)Nc3cc(OC)cc(OC)c3)nc2)cc(OC)c1`, the IC50 in assay [1] is 34.9 µM; in assay [2], 22.8 µM.

As for `O=C(Nc1cc(F)ccc1F)c1ccc(C(=O)Nc2cc(F)ccc2F)nc1`, the IC50 in assay [1] and in assay [2] was more than 100 µM throughout.

`Cc1c(O)ccc2cc(NC(=O)c3ccc(C(=O)Nc4cc5ccc(O)c(C)c5oc4=O)nc3)c(=O)oc12`: the IC50 in assay [1] and in assay [2] was more than 100 µM in each case.

Consider `O=C(Nc1ccc2ccccc2c1)c1ccc(C(=O)Nc2ccc3ccccc3c2)nc1`, for which the IC50 in assay [1] and in assay [2] was more than 100 µM in each case.

`O=C(Nc1ccccc1F)c1ccc(C(=O)Nc2ccccc2F)nc1`: the IC50 in assay [1] and in assay [2] was more than 100 µM in each case.

Regarding `O=C(Nc1ccccc1O)c1ccc(C(=O)Nc2ccccc2O)nc1`, the 50% inhibitory concentration (IC50) in assay [1] and in assay [2] was more than 100 µM each time.

In the case of `Cc1cc(C)cc(NC(=O)c2ccc(C(=O)Nc3cc(C)cc(C)c3)nc2)c1`, the IC50 in assay [1] was 104 µM; in assay [2], 16.3 µM.

For `O=C(Nc1cc(F)cc(F)c1)c1ccnc(C(=O)Nc2cc(F)cc(F)c2)c1`, the IC50 in assay [1] is more than 100 µM; in assay [2], 14.7 µM.

For `O=C(Nc1ccc(Cl)cc1O)c1ccc(C(=O)Nc2ccc(Cl)cc2O)nc1`, the half-maximal inhibitory concentration (IC50) in assay [1] and in assay [2] was more than 100 µM in each case.

As to `O=C(Nc1ccc(O)cc1)c1ccc(C(=O)Nc2ccc(O)cc2)nc1`, the IC50 in assay [1] and in assay [2] was more than 100 µM each time.

For `COc1cc(NC(=O)c2ccnc(C(=O)Nc3cc(OC)cc(OC)c3)c2)cc(OC)c1`, the IC50 in assay [1] and in assay [2] was more than 100 µM throughout.

Turning to `O=C(Nc1cccc(Cl)c1)c1ccc(C(=O)Nc2cccc(Cl)c2)nc1`, the IC50 in assay [1] amounted to 28.3 µM; in assay [2] it was 27.3 µM.

Consider `O=C(NCCc1ccc2c(c1)OCO2)c1ccc(C(=O)NCCc2ccc3c(c2)OCO3)nc1`, for which the IC50 in assay [1] and in assay [2] was more than 100 µM in each case.

For `O=C(Nc1ccc(F)c(F)c1)c1ccc(C(=O)Nc2ccc(F)c(F)c2)nc1`, the half-maximal inhibitory concentration (IC50) in assay [1] and in assay [2] was more than 100 µM each time.

In the case of `O=C(Nc1cccc(Cl)c1)c1ccnc(C(=O)Nc2cccc(Cl)c2)c1`, the IC50 in assay [1] worked out at 9 µM; in assay [2], 2.4 µM.

`O=C(Nc1ccccc1F)c1ccnc(C(=O)Nc2ccccc2F)c1`: the IC50 in assay [1] is 87.7 µM; in assay [2], 40.4 µM.

`Cc1cc(C)cc(NC(=O)c2ccnc(C(=O)Nc3cc(C)cc(C)c3)c2)c1`: the IC50 in assay [1] and in assay [2] was more than 100 µM in each case.

Turning to `O=C(Nc1cc(F)cc(F)c1)c1cccc(C(=O)Nc2cc(F)cc(F)c2)c1`, the IC50 in assay [1] and in assay [2] was more than 100 µM each time.

On to `COc1cc(NC(=O)c2cccc(C(=O)Nc3cc(OC)cc(OC)c3)c2)cc(OC)c1`, for which the IC50 in assay [1] and in assay [2] was more than 100 µM in each case.

For the compound `Cc1cc(C)cc(NC(=O)c2cccc(C(=O)Nc3cc(C)cc(C)c3)c2)c1`, the IC50 in assay [1] amounted to 12.2 µM; in assay [2], 2.1 µM.

Turning to `O=C(Nc1ccc2c(c1)OCCO2)c1ccc(C(=O)Nc2ccc3c(c2)OCCO3)c([N+](=O)[O-])c1`, the IC50 in assay [1] and in assay [2] was more than 100 µM throughout.

Consider `O=C(Nc1cc(Cl)cc(Cl)c1)c1ccc(C(=O)Nc2cc(Cl)cc(Cl)c2)c2ccccc12`, for which the IC50 in assay [1] and in assay [2] was more than 100 µM throughout.

On to `O=C(Nc1ccc2c(c1)OCCO2)c1cccc(C(=O)Nc2ccc3c(c2)OCCO3)n1`, for which the half-inhibitory concentration (IC50) in assay [1] is more than 100 µM; in assay [2] it was 27.5 µM.

With `O=C(Nc1cc(Cl)cc(Cl)c1)c1cccc(C(=O)Nc2cc(Cl)cc(Cl)c2)n1`, the concentration for half-maximal inhibition (IC50) is 16.3 µM in assay [1] and 10.2 µM in assay [2].

As to `O=C(Nc1ccc2c(c1)OCCO2)c1ccc(C(=O)Nc2ccc3c(c2)OCCO3)cc1`, the IC50 in assay [1] and in assay [2] was more than 100 µM in each case.

In the case of `O=C(Nc1ccc2c(c1)OCCOCCOCCOCCO2)c1cccc(C(=O)Nc2ccc3c(c2)OCCOCCOCCOCCO3)c1`, the IC50 in assay [1] and in assay [2] was more than 100 µM in each case.

For the compound `O=C(Nc1cc(Cl)cc(Cl)c1)c1cccc(C(=O)Nc2cc(Cl)cc(Cl)c2)c1`, the IC50 in assay [1] is 4.5 µM; in assay [2], 2.7 µM.

As for `O=C(Nc1ccc2c(c1)OCO2)c1ccc(C(=O)Nc2ccc3c(c2)OCO3)nc1`, the IC50 in assay [1] and in assay [2] was more than 100 µM in each case.

Take `O=C(Nc1cc(Cl)cc(Cl)c1)c1ccc(C(=O)Nc2cc(Cl)cc(Cl)c2)nc1`: the IC50 turned out to be 2.3 µM in assay [1] and 4.1 µM in assay [2].

Consider `O=C(NC1CCCCC1)c1ccc(C(=O)NC2CCCCC2)nc1`, for which the IC50 in assay [1] and in assay [2] was more than 100 µM throughout.

As for `O=C(Nc1cc(F)ccc1F)c1ccnc(C(=O)Nc2cc(F)ccc2F)c1`, the IC50 in assay [1] and in assay [2] was more than 100 µM each time.

As to `Cc1cc(C)cc(NC(=O)c2cccc(C(=O)Nc3cc(C)cc(C)c3)n2)c1`, the half-maximal inhibitory concentration (IC50) in assay [1] and in assay [2] was more than 100 µM in each case.

With `O=C(Nc1ccc(F)c(F)c1)c1cccc(C(=O)Nc2ccc(F)c(F)c2)n1`, the IC50 in assay [1] and in assay [2] was more than 100 µM each time.

For `O=C(Nc1ccc2ccccc2c1)c1ccnc(C(=O)Nc2ccc3ccccc3c2)c1`, the IC50 in assay [1] is more than 100 µM; in assay [2], 81.8 µM.

With `O=C(Nc1ccc2c(c1)OCCO2)c1cnc(C(=O)Nc2ccc3c(c2)OCCO3)cn1`, the IC50 in assay [1] and in assay [2] was more than 100 µM each time.

For the compound `N#Cc1ccc(NC(=O)c2cccc(C(=O)Nc3ccc(C#N)cc3)c2)cc1`, the 50% inhibitory concentration (IC50) in assay [1] and in assay [2] was more than 100 µM in each case.

Regarding `O=C(CCCCCCC(=O)Nc1ccc2c(c1)OCCO2)Nc1ccc2c(c1)OCCO2`, the IC50 in assay [1] and in assay [2] was more than 100 µM each time.

Take `O=C(Nc1ccc2c(c1)OCCO2)c1ccc(C(=O)Nc2ccc3c(c2)OCCO3)c2ccccc12`: the IC50 in assay [1] and in assay [2] was more than 100 µM each time.
